Assay results taken from ChEMBL document CHEMBL2417551, “Structure-guided design of novel thiazolidine inhibitors of O-acetyl serine sulfhydrylase from Mycobacterium tuberculosis” (J Med Chem, 2013).

Tests used:
[1] = target: O-acetylserine sulfhydrylase (Mycobacterium tuberculosis) (UniProt P9WP55); details: at 500 nM
Description: Inhibition of Mycobacterium tuberculosis N-terminal His-6-tagged recombinant CysK1 expressed in Escherichia coli BL21 (DE3) at 500 nM after 20 mins by spectrophotometric analysis

[2] = target: T1, O-acetylserine sulfhydrylase (Mycobacterium tuberculosis, UniProt P9WP55)
Description: Inhibition of Mycobacterium tuberculosis N-terminal His-6-tagged recombinant CysK1 expressed in Escherichia coli BL21 (DE3) after 20 mins by spectrophotometric analysis

[3] = Lipophilicity, log P of the compound; type: physicochemical; details: octanol/water
[4] = target: O-acetylserine sulfhydrylase (Mycobacterium tuberculosis) (UniProt P9WP55)
[5] = target: O-acetylserine sulfhydrylase (Mycobacterium tuberculosis) (UniProt P9WP55); remark: listed apart in the source
[6] = target: T1, O-acetylserine sulfhydrylase; assay: Inhibition of Mycobacterium tuberculosis CysK1

CN1C(=O)/C(=C/c2ccc(F)cc2)S/C1=N\c1cccc(C(=O)O)c1
inhibition [1]: 89.5%
IC50 [2]: 19 nM
logP [3]: 2.7
Ratio IC50 [4]: 5
Ratio IC50 [5]: 150

CC[C@H](C)[C@H](NC(=O)[C@H](CO)NC(=O)[C@H](Cc1ccccc1)NC(=O)[C@@H](N)CC(=O)O)C(=O)O
IC50 [6]: 2900 nM

CN1C(=O)/C(=C/c2ccccc2OCC(=O)O)S/C1=N\c1cccc(C(=O)O)c1
IC50 [6]: 103 nM

COc1ccc(/C=C2\S/C(=N\c3cccc(C(=O)O)c3)N(C)C2=O)cc1OC
inhibition [1]: 89.7%
IC50 [2]: 54.3 nM

CN1C(=O)/C(=C/c2ccc(N(C)C)cc2)S/C1=N\c1cccc(C(=O)O)c1
inhibition [1]: 93.4%
IC50 [2]: 37 nM

COc1cc(/C=C2\S/C(=N\c3cccc(C(=O)O)c3)N(C)C2=O)ccc1O
inhibition [1]: 87.5%
IC50 [2]: 60 nM

COc1ccc(/C=C2\S/C(=N\c3cccc(C(=O)O)c3)N(C)C2=O)cc1
inhibition [1]: 88.6%
IC50 [2]: 33.9 nM

CN1C(=O)/C(=C/c2ccc(O)cc2)S/C1=N\c1cccc(C(=O)O)c1
inhibition [1]: 92.6%
IC50 [2]: 62.6 nM
